Holding throughout (type): cell-based
For one experiment, the target named is T1, human TLR7 (Homo sapiens, UniProt Q9NYK1).
T1 construct: host or cells: HEK-Blue cells
T1 sequence (Q9NYK1 27-1049): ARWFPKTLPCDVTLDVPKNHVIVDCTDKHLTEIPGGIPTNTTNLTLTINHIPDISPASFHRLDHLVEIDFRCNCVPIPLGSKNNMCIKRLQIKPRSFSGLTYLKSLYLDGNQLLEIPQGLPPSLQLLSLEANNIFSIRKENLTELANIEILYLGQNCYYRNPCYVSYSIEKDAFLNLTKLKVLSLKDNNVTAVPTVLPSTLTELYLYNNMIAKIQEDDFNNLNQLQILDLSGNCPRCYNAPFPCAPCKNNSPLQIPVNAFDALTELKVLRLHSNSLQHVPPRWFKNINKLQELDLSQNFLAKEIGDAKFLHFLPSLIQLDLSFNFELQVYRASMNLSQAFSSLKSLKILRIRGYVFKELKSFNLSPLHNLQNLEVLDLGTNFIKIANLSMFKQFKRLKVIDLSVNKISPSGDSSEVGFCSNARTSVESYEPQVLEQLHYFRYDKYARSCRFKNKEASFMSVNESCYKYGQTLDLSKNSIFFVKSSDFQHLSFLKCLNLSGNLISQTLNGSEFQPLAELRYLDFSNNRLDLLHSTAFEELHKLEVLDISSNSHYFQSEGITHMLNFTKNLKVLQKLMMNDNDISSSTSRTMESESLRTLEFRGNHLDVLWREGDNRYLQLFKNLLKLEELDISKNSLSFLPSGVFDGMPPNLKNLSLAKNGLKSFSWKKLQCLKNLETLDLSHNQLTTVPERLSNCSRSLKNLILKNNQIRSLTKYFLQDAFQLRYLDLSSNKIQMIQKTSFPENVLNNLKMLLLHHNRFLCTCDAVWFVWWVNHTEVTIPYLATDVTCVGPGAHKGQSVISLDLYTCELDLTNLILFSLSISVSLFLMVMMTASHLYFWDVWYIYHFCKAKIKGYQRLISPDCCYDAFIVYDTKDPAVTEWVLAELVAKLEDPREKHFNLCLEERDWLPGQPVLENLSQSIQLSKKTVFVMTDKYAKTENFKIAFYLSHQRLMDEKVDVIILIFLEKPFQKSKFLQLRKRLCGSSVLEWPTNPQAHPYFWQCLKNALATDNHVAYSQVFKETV
The experiment can be described thus: TLR7 inhibition reporter assay (HEK-Blue SEAP reporter, gardiquimod stimulation). As to conditions: HEK-Blue cells overexpressing human TLR7, SEAP reporter, gardiquimod 7.5 μM, 22 hour incubation. A digest of the protocol: (§1)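 Screening used HEK-Blue cells overexpressing one human TLR (7, 8 or 9) and an IFN-β minimal promoter–NF-κB/AP-1 SEAP construct. Stimulation lasted 22 h at 37 °C with receptor-specific agonist: gardiquimod, R848 or ODN2006 at 7.5 μM, 15.9 μM and 5 nM.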
(In general: A reporter such as luciferase makes a cellular process visible.)

In a further experiment the target is T2, human TLR9 (Homo sapiens, UniProt Q9NR96).
T2 construct: host or cells: HEK-Blue cells
T2 sequence (Q9NR96 26-1032): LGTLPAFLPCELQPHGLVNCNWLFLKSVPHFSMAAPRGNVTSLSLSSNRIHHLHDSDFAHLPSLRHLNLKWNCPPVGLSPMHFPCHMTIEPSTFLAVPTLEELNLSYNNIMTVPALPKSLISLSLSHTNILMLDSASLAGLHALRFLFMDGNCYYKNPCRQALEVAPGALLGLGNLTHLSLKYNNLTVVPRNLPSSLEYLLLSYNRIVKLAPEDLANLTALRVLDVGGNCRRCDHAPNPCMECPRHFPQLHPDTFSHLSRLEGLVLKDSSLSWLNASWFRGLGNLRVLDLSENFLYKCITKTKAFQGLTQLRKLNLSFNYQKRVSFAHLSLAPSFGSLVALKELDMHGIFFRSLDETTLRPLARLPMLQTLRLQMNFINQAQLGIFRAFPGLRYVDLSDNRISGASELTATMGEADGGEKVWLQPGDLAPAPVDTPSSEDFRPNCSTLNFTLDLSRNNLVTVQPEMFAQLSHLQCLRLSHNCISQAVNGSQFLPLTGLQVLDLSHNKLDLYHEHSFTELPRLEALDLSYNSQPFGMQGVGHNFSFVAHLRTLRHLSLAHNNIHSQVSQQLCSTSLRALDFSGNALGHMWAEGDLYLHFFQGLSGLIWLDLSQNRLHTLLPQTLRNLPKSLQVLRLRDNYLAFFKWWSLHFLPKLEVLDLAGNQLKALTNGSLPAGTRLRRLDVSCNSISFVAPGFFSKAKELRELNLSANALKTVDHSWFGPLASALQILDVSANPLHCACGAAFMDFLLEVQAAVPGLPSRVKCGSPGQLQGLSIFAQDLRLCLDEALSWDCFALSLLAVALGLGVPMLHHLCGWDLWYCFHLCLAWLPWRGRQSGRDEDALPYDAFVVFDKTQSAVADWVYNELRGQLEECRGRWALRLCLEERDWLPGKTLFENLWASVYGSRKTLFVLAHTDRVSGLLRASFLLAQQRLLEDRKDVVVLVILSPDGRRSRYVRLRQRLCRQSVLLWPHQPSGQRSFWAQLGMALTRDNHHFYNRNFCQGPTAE
The experiment can be described thus: TLR9 inhibition reporter assay (HEK-Blue SEAP reporter, ODN2006 stimulation). The settings on record: HEK-Blue cells overexpressing human TLR9, SEAP reporter, ODN2006 5 nM, 22 hour incubation. The method in brief: as §1

The target of a further experiment is T3, human TLR8 (Homo sapiens, UniProt Q9NR97).
T3 construct: host or cells: HEK-Blue cells
T3 sequence (Q9NR97 27-1041): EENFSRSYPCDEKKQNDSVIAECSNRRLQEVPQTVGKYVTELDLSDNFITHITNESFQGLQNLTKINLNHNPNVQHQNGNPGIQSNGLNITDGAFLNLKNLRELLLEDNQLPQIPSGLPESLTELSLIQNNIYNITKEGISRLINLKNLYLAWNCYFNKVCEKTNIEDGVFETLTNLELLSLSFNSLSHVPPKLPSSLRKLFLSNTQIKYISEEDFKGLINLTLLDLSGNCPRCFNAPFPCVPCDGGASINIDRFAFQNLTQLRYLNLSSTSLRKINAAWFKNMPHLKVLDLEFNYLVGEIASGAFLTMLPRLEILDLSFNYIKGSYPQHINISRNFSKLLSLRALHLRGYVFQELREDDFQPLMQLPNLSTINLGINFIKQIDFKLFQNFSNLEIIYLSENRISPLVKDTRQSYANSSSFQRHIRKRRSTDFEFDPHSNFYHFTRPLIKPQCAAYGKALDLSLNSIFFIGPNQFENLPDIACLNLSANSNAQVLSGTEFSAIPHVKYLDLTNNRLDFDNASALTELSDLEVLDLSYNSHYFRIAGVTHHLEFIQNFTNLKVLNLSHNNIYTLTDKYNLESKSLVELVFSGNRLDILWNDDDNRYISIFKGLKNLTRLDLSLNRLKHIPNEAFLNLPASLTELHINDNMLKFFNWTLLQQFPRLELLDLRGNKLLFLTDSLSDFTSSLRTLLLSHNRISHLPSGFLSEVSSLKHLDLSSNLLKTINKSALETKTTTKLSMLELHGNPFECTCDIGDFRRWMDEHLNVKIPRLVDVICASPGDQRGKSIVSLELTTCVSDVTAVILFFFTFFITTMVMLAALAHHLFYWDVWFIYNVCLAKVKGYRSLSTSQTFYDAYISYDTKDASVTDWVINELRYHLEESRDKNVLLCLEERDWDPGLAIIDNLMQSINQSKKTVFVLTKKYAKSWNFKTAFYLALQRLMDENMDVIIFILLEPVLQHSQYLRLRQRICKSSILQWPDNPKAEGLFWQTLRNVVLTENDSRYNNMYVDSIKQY
The experiment can be described thus: TLR8 inhibition reporter assay (HEK-Blue SEAP reporter, R848 stimulation). As to conditions: HEK-Blue cells overexpressing human TLR8, SEAP reporter, R848 15.9 μM, 22 hour incubation. A digest of the protocol: as §1

As for `CCn1cc(-c2[nH]c3ccc(C4CCN(C(C)C)CC4)cc3c2C(C)C)c(C)c(C)c1=O` [Example 213, 1-ethyl-5-(3-isopropyl-5-(1-isopropylpiperidin-4-yl)-1H-indol-2-yl)-3,4-dimethylpyridin-2(1H)-one], the IC50 was determined as 15.6 nM on human TLR7, 2.91 µM against human TLR9 and 16.5 nM against human TLR8.

As to `COCc1cc(-c2[nH]c3ccc(C4CCN(CC(C)(C)O)CC4)cc3c2C(C)C)cn(C)c1=O` [Example 323, 5-(5-(1-(2-hydroxy-2-methylpropyl)piperidin-4-yl)-3-isopropyl-1H-indol-2-yl)-3-(methoxymethyl)-1-methylpyridin-2(1H)-one], the IC50 against human TLR7 is 18.4 nM; at human TLR9, 7.18 µM; at human TLR8, 13.9 nM.

For the molecule `CNC(=O)CN1CCC(c2ccc3[nH]c(-c4cc(OC)c(=O)n(C)c4C)c(C(C)C)c3c2)CC1` [Example 142, 2-(4-(3-isopropyl-2-(5-methoxy-1,2-dimethyl-6-oxo-1,6-dihydropyridin-3-yl)-1H-indol-5-yl)piperidin-1-yl)-N-methylacetamide], the IC50 against human TLR7 was determined as 205 nM; at human TLR9 it was 7.65 µM; at human TLR8, 95.4 nM.

As to `Cc1cc(-c2[nH]c3ccc(C4CCN(C(C)C)CC4)cc3c2C(C)C)c(C)n(C)c1=O` [Example 214, 5-(3-isopropyl-5-(1-isopropylpiperidin-4-yl)-1H-indol-2-yl)-1,3,6-trimethylpyridin-2(1H)-one], the half-maximal inhibitory concentration (IC50) was 13.9 nM against human TLR7, 5.69 µM against human TLR9 and 7.9 nM against human TLR8.

Take `Cc1c(-c2[nH]c3ccc(C4CCN(C5COC5)CC4)cc3c2C(C)C)cc(C#N)c(=O)n1C` [Example 219, 5-(3-isopropyl-5-(1-(oxetan-3-yl)piperidin-4-yl)-1H-indol-2-yl)-1,6-dimethyl-2-oxo-1,2-dihydropyridine-3-carbonitrile]: the IC50 against human TLR7 came out at 48 nM; against human TLR9, 22.3 µM; against human TLR8, 9.1 nM.

Turning to `CCn1cc(-c2[nH]c3ccc(C4CCN(CC(=O)NC)CC4)cc3c2C(C)C)c(C)c(C)c1=O` [Example 137, 2-(4-(2-(1-ethyl-4,5-dimethyl-6-oxo-1,6-dihydropyridin-3-yl)-3-isopropyl-1H-indol-5-yl)piperidin-1-yl)-N-methylacetamide], the concentration for half-maximal inhibition (IC50) on human TLR7 came out at 19.9 nM; against human TLR9, 11.5 µM; against human TLR8, 12.3 nM.

`Cc1cc(-c2[nH]c3ccc(C4CCN(C(=O)C(C)(C)N)CC4)cc3c2C(C)C)cn(C)c1=O` [Example 296, 5-(5-(1-(2-amino-2-methylpropanoyl)piperidin-4-yl)-3-isopropyl-1H-indol-2-yl)-1,3-dimethylpyridin-2(1H)-one]: the IC50 on human TLR7 came out at 1.1 nM; against human TLR9, 4.31 µM; against human TLR8 it was 3 nM.

Consider `Cc1nc(-c2[nH]c3ccc(C4CCNCC4)cc3c2C(C)C)cn(C)c1=O` [Example 12, 5-(3-isopropyl-5-(piperidin-4-yl)-1H-indol-2-yl)-1,3-dimethylpyrazin-2(1H)-one], for which the IC50 against human TLR7 was determined as 24.7 nM; at human TLR9, 5.23 µM; on human TLR8 it was 29 nM.

On to `Cc1cc(-c2[nH]c3ccc(C4CCN(Cc5ncnn5C)CC4)cc3c2C(C)C)cn(C)c1=O` [Example 198, 5-(3-isopropyl-5-(1-((1-methyl-1H-1,2,4-triazol-5-yl)methyl)piperidin-4-yl)-1H-indol-2-yl)-1,3-dimethylpyridin-2(1H)-one], for which the IC50 was 9.1 nM against human TLR7, at least 50 µM at human TLR9 and 13.4 nM against human TLR8.

`Cc1c(-c2[nH]c3ccc(C4CCN(CC(C)(C)O)CC4)cc3c2C(C)C)cn(C)c(=O)c1C` [Example 315, 5-(5-(1-(2-hydroxy-2-methylpropyl)piperidin-4-yl)-3-isopropyl-1H-indol-2-yl)-1,3,4-trimethylpyridin-2(1H)-one]: the IC50 against human TLR7 is 6.7 nM; at human TLR9, 4.94 µM; against human TLR8, 1.8 nM.

Regarding `Cc1cc(-c2[nH]c3ccc(C4CCN(C5CCOCC5)CC4)cc3c2C(C)C)cn(C)c1=O` [Example 178, 5-(3-isopropyl-5-(1-(tetrahydro-2H-pyran-4-yl)piperidin-4-yl)-1H-indol-2-yl)-1,3-dimethylpyridin-2(1H)-one], the IC50 against human TLR7 was 3.9 nM; against human TLR9, 7.09 µM; at human TLR8, 3.2 nM.

On to `Cc1cc(-c2[nH]c3ccc(C4CCN(Cc5ccc(OC(F)(F)F)cc5)CC4)cc3c2C(C)C)cn(C)c1=O` [Example 77, 5-(3-isopropyl-5-(1-(4-(trifluoromethoxy)benzyl)piperidin-4-yl)-1H-indol-2-yl)-1,3-dimethylpyridin-2(1H)-one], for which the IC50 came to 123 nM against human TLR7, 7.85 µM against human TLR9 and 50.6 nM on human TLR8.

In general, IC50 refers to the concentration that gives 50% inhibition. Lower therefore signals higher potency.

For the origin of these results see US11447466B2, “Substituted indole compounds useful as inhibitors of TLR7/8/9” (BRISTOL-MYERS SQUIBB COMPANY, priority 2017, dated 2022).
